For orientation: Kd means the equilibrium constant for the complex coming apart. Read a high Kd as lower affinity.

Structures are written as SMILES.

Data on one molecule can be found in PMC12123037, “Cleavage of CAD by caspase-3 determines the cancer cell fate during chemotherapy” (Nature Communications, 2025).

The target of this test is T1, CAD (GFP-CAD; assayed as GFP-CAD-D1371A) (Homo sapiens, UniProt P27708, D1371A).
T1 construct: full-length CAD subcloned into Not I/Bgl II sites of pEGFP-N1-His (GFP fusion, GFP kept); expressed in HEK-293T; RIPA lysate diluted 150x in MST buffer, not purified
Briefly: microscale thermophoresis, GFP fusion in diluted HEK-293T lysate. It is filed as binding. An excerpt: microscale thermophoresis, GFP fusion in diluted HEK-293T lysate on CAD (GFP-CAD; assayed as GFP-CAD-D1371A) | direct interaction between RMY-186 and CAD-D1371A protein in vitro, with a Kd of […]
In general terms: Microscale thermophoresis detects binding through changes in fluorescence in a small temperature gradient.

T1 sequence (P27708 whole entry D1371A, the tested form may be a part): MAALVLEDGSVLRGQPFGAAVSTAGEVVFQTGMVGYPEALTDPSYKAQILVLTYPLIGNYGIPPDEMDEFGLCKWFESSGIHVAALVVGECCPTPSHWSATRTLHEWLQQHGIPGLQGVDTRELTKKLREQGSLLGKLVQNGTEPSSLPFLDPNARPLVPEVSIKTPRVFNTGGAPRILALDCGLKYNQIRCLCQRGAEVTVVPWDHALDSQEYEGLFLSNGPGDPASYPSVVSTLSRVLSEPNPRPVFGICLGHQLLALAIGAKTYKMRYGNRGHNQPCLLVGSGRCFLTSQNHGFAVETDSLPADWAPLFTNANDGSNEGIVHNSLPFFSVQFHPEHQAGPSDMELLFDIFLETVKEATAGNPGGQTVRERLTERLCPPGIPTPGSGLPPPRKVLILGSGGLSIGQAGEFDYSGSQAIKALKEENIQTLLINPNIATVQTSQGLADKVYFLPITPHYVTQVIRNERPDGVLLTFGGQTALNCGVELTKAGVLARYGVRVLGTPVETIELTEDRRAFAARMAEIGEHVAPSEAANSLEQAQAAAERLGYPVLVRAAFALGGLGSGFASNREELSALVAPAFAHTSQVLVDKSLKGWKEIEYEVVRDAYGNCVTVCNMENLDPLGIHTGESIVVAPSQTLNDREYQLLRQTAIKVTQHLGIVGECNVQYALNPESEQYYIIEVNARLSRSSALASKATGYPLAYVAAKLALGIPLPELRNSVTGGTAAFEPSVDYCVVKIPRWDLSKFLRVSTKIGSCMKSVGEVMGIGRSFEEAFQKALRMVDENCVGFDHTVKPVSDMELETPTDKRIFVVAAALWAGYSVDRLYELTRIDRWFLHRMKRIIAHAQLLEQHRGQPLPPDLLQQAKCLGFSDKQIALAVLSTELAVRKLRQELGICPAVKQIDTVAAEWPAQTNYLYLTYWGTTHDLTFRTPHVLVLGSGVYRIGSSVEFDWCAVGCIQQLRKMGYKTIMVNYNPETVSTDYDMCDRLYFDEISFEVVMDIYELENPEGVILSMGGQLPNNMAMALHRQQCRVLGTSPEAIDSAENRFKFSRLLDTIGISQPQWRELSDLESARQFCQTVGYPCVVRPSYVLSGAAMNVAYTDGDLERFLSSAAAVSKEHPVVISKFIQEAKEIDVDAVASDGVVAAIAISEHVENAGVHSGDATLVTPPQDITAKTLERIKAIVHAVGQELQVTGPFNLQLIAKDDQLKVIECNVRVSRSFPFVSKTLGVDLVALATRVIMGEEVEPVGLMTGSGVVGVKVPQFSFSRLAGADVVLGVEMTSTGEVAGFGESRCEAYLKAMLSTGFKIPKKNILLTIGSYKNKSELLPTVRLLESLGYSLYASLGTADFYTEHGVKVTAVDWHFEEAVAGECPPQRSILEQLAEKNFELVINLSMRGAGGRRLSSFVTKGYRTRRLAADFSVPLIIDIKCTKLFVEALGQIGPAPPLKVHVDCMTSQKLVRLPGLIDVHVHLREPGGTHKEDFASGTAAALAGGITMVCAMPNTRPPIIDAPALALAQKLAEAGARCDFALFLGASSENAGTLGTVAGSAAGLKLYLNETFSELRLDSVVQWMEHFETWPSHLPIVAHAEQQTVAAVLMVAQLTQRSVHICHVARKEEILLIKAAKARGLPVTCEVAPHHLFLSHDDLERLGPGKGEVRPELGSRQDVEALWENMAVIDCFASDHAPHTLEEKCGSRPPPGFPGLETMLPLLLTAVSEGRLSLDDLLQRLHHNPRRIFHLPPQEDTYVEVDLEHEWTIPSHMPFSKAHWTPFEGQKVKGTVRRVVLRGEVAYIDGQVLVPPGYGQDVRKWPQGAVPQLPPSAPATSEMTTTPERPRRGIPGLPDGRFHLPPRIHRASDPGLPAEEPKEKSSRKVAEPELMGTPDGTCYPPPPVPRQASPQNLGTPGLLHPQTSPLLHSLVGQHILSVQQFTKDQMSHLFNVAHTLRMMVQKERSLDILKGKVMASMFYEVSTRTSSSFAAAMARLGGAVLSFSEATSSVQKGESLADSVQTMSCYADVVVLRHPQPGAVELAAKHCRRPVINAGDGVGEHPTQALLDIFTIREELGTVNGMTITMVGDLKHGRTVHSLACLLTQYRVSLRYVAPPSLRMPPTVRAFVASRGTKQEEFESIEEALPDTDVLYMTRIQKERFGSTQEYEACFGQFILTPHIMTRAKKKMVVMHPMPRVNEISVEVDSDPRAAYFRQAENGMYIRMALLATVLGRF

`O=c1c(O)c(N2CCN(Cc3cccc(Br)c3)CC2)oc2ccccc12` [compound 9, 2-(4-(3-bromobenzyl)-piperazin-1-yl)-3-hydroxy-4H-chromen-4-one] showed a Kd of 6.78 µM.
